Assay results from patent publication EP0478631B1, “TARGETTING AGENTS” (CANCER RESEARCH CAMPAIGN TECHNOLOGY LTD., priority 1989, dated 1991).
pEC50: −log10 of the molar value.

Target: Cloudman S91
Experiment: Tyrosinase activity in vitro (release of tritiated water from 3,5-3H-tyrosine)
Format: cell-based
Details: molar concentration giving a response equal to half the maximum; tyrosinase activity relative to melanotropin-free control; Cloudman S91 monolayers, 24 h + further 24 h with 3,5-³H-tyrosine; read-out: EC₅₀
Experimental: Cloudman S91 were grown in monolayers to a density of approximately 25,000 cells cm⁻² in 25cm² culture flasks using 4 ml Ham's F10 medium supplemented with 10% heat inactivated foetal calf serum. The medium was replaced and 10⁻⁵ and 10⁻⁹ molar concentrations of the test or control compound added. After 24 h, medium and melantropins were renewed and 1»Ci, 3,5-³H-tyrosine included. The final specific activity of 3,5-³H-tyrosine incubation medium was 0.1 Ci/mmol.
After a further 24h, 0.2ml of the medium from each incubation were transferred to centrifuge tubes containing 1ml activated charcoal suspension (100 mg/ml in 0.1M citric acid). The tubes were vortexed and centrifuged at 700 x g for 5 min. Aliquots (0.5 ml) of each supernatant were transferred to scintillation vials and counted on a Packard Tri-Carb 300D scintillation counter. Aliquots (0.1ml) of the unextracted medium were also counted. Finally, the remaining medium was removed and the cell monolayer suspended in 1ml isotonic trypsin/EDTA. The dispersed cells were counted in a Coulter counter.
The amount of water generated from the tyrosine per 10⁵ cells was calculated and the results divided by the value obtained from the melanotropin-free control. The activities of the melanotropins were expressed as the molar concentrations required to give responses equal to half the maximum (EC₅₀) and are recorded in Table 1.

pEC50	Compound
9.13	CCCC[C@H](NC(C)=O)C(=O)N[C@@H](CC(=O)O)C(=O)N[C@@H](Cc1c[nH]cn1)C(=O)N[C@H](Cc1ccccc1)C(=O)N[C@@H](CCCNC(=N)N)C(=O)N[C@@H](Cc1c[nH]c2ccccc12)C(=O)N[C@@H](CCCCN)C(N)=O [MSH(4-10), Ac-[Nle⁴, Asp⁵, D-Phe⁷, Lys¹⁰] α-MSH₄₋₁₀-NH₂]
8.55	alpha-melanocyte stimulating hormone [MSH]
